Test results as given in patent US12303474B2, “S-enantiomerically enriched compositions of beta blockers for treating amyotrophic lateral sclerosis” (priority 2013, dated 2025).
Read-outs that look alike come from different tables or passages of the source.

How the values were obtained:
[1] = tested on: G93A SOD1 B6SJL hybrid (G93A) model; assay: Disease progression score (JAX SOP) in G93A SOD1 transgenic mice; conditions: 20 mg/kg/day vs. placebo
Source text: The disease progression score is based on the JAX SOP (Ludolph A C, Bendotti C, Blaugrund E, Hengerer B, Loffler J P, Martin J, Meininger V, Meyer T, Moussaoui S, Robberecht W, Scott S, Silani V, Van Den Berg L H (ENMC Group For The Establishment Of Guidelines For The Conduct Of Preclinical And Proof Of Concept Studies In ALS/MND Models). 2007, which is incorporated by reference).

[2] = tested on: G93A SOD1 B6SJL hybrid (G93A) model; conditions: 20 mg/kg/day vs. placebo;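 as to HR survival (FIG. 14): dosing began after ALS onset in G93A SOD1 mice, with survival as the endpoint, defined humanely as the animal failing to regain upright posture within 30 s when placed sideways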;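 as to HR survival (FIG. 16): dosing began after ALS onset in G93A SOD1 mice, with survival as the endpoint, defined humanely as the animal failing to regain upright posture within 30 s when placed sideways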
Source text: To study the effect of S-oxprenolol on survival, survival was monitored over time.

[3] = tested on: G93A SOD1 B6SJL hybrid (G93A) model; conditions: 20 mg/kg/d; for Heart / gastrocnemius: end of study;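 as to HR survival (FIG. 14): dosing began after ALS onset in G93A SOD1 mice, with survival as the endpoint, defined humanely as the animal failing to regain upright posture within 30 s when placed sideways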;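 as to HR survival (FIG. 16): dosing began after ALS onset in G93A SOD1 mice, with survival as the endpoint, defined humanely as the animal failing to regain upright posture within 30 s when placed sideways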
Method: (§1) Transgenic mice over-expressing a high copy number (25 copies) of mutated human SOD1 gene with a G93A point mutation, i.e., B6SJL-TgN [SOD1-G93A]1 Gur (G1H-G93A transgenic mice, JR2726; Hemizygote) (Gurney M E, et al., Science, 264, 1772-1775, 1994) (“G93A SOD1 B6SJL hybrid (G93A) model”), were used.
To study the effect of the test compounds on skeletal muscle atrophy, the skeletal muscle mass were determined at the end of the study.
The number of all mice in the population is indicated as “n” in at the bottom of FIGS. 21A-21C.
The number of all mice in the population is indicated as “n” in at the bottom of FIGS. 20D-20F.
The number of all mice in the population is indicated as “n” in at the bottom of FIGS. 21G-21I.

[4] = tested on: G93A SOD1 B6SJL hybrid (G93A) model; assay: Body weight and body composition (lean mass, fat mass; NMR scans) in G93A SOD1 transgenic mice; format: in vivo; conditions: 20 mg/kg/d; for Average Δ fat mass / Average Δ lean mass / Average Δ body weight: per day alive after disease onset
Source text: as §1
[…] […] There were 16 mice in the S-oxprenolol group.
The primary endpoint was survival, humanely defined as the ability of the animal to right itself in 30 seconds after being laid on its side. Secondary endpoints were body weight, body composition, spontaneous activity and food intake. Body weight of the animals was assessed weekly until onset of disease. Additionally, body composition (fat mass and lean body mass) was assessed using NMR scans (EchoMRI-100, Echo Medical Systems, Houston, USA) every 4 days. After onset of disease, body weight and body composition were assessed every two days until the end of the study. All personal handling the animals was strictly blinded to the randomized treatment allocation.
To study the effect of S-oxprenolol on body weight, body weight was monitored over time.
To study the effect of the test compounds on lean body mass, lean mass was determined at the end of the study.
To study the effect of the test compounds on fat mass, the fat mass were determined at the end of the study.
To study the effect of S-oxprenolol on body weight, body weight was monitored over time. […] The number of all mice in the population is indicated as “n” in at the bottom of FIGS. 20A-20C.
To study the effect of the test compounds on lean body mass, lean mass was determined at the end of the study. […] The number of all mice in the population is indicated as “n” in at the bottom of FIGS. 20D-20F.
To study the effect of the test compounds on fat mass, the fat mass were determined at the end of the study. […] The number of all mice in the population is indicated as “n” in at the bottom of FIGS. 20G-20I.

With `C=CCOc1ccccc1OCC(O)CNC(C)C` (racemic) [oxprenolol, 1-[2-(allyloxy)phenoxy]-3-(isopropylamino)propan-2-ol] the “HR Progression from score 1 to score 2 (FIG. 17)” value [1] was 0.60, the “HR Progression from score 1 to score 3 (FIG. 19)” value [1] was 0.60 and the “HR Progression from score 2 to score 3 (FIG. 18)” value [1] was 0.77. The “HR survival (FIG. 14)” value ([2]; all mice) was 0.66, the “HR survival (FIG. 16)” value ([2]; female mice) was 1.03 and the “HR survival (FIG. 15)” value ([2]; male mice) was 0.38. The “BAT (brown adipose tissue)” value ([3]; all mice) was 40.6 ± 2.8 mg, the “EDL (extensor digitorum longus)” value ([3]; all mice) was 7.24 ± 0.41 mg and the soleus ([3]; all mice) was 4.99 ± 0.36 mg. The Heart ([3]; all mice) was 100.2 ± 3.2 mg, the gastrocnemius ([3]; all mice) was 52.2 ± 2.3 mg and the “BAT (brown adipose tissue)” value ([3]; female mice) was 35.2 ± 4.1 mg. The “EDL (extensor digitorum longus)” value ([3]; female mice) was 6.97 ± 0.36 mg, the soleus ([3]; female mice) was 4.76 ± 0.52 mg and the Heart ([3]; female mice) was 89.5 ± 2.4 mg. The gastrocnemius ([3]; female mice) was 49.5 ± 2.1 mg, the “BAT (brown adipose tissue)” value ([3]; male mice) was 45.7 ± 3.6 mg and the “EDL (extensor digitorum longus)” value ([3]; male mice) was 7.49 ± 0.72 mg. It also gave a soleus ([3]; male mice) of 5.21 ± 0.51 mg, a Heart ([3]; male mice) of 110.2 ± 2.9 mg and a gastrocnemius ([3]; male mice) of 54.7 ± 3.9 mg. For the same molecule, the Δ body weight ([4]; all mice) was -5.59 ± 0.48 g, the Δ fat mass ([4]; all mice) was -1.49 ± 0.12 g and the Δ lean mass ([4]; all mice) was -4.67 ± 0.42 g. The “Average Δ fat mass” value ([4]; all mice) was -33.1 ± 2.6 mg/day, the “Average Δ lean mass” value ([4]; all mice) was -102.0 ± 10.7 mg/day and the Δ body weight ([4]; female mice) was -5.27 ± 0.61 g. The Δ fat mass ([4]; female mice) was -1.64 ± 0.21 g, the Δ lean mass ([4]; female mice) was -3.76 ± 0.42 g and the “Average Δ body weight” value ([4]; female mice) was -122.5 ± 14.7 mg/day. For the same molecule, the “Average Δ fat mass” value ([4]; female mice) was -37.5 ± 3.7 mg/day, the “Average Δ lean mass” value ([4]; female mice) was -85.8 ± 11.6 mg/day and the Δ body weight ([4]; male mice) was -5.94 ± 0.77 g. The Δ fat mass ([4]; male mice) was -1.33 ± 0.13 g, the Δ lean mass ([4]; male mice) was -5.64 ± 0.68 g and the “Average Δ body weight” value ([4]; male mice) was -124.8 ± 20.7 mg/day. The “Average Δ fat mass” value ([4]; male mice) was -28.3 ± 3.1 mg/day and the “Average Δ lean mass” value ([4]; male mice) was -119.4 ± 17.7 mg/day.
